# Reference: patent publication US20230146455A1, “TREATMENT OF INFLAMMATORY DISEASES WITH PEPTIDES AND PHARMACEUTICAL COMPOSITIONS” (Yuyu Pharma, Inc., priority 2020, published 2023)
# “And” between values parts separate entries of the source, which are not always exact repeats. Equal entries are not always repeated. Where a SMILES comes first, the peptide text is derived from it. [ ]: non-standard residue; d: D form. Hyp = O=C(O)[C@@H]1C[C@@H](O)CN1
# Test system: CCL20/MIP-3 alpha
# Test: Example 9 Luminex, LPS hPBMCs: CCL20/MIP-3 alpha
# Assay type: cell-based, human
# Method: Treatment Human PBMCs were pretreated with YY-101, YDE-011 and YDE-043 or reference compound; Xiidra® at various concentration (ranging from 1 nM to 100 uM) for 2 h before stimulation. An equal volume of 0.5% DMSO was used as a vehicle control. Then, the cells were treated with LPS at 5 ug/ml. The supernatants from treated cells were harvested at 24 h and placed in a 96 well for Luminex cytokine & chemokine profiling using a Luminex 200 multiplex assay (Luminex; R&D system, USA).
# The main study arm with triplicate wells per group in a 24-well plate: • 1. Blank • 2. PBMC: 0.5% DMSO • 3. PBMC+LPS (5 ug/ml) • 4. PBMC+YY-101 100 uM • 5. PBMC+YY-101 10 uM • 6. PBMC+YY-101 1 uM • 7. PBMC+YY-101 0.1 uM • 8. PBMC+YY-101 0.01 uM • 9. PBMC+LPS (5 ug/ml)+Xiidra®100 uM • 10. PBMC+LPS (5 ug/ml)+Xiidra® 10 uM • 11. PBMC+LPS (5 ug/ml)+Xiidra® 1 uM • 12. PBMC+LPS (5 ug/ml)+Xiidra®0.1 uM • 13. PBMC+LPS (5 ug/ml)+Xiidra®0.01 uM • 14. PBMC+LPS (5 ug/ml)+Xiidra®0.001 uM • 15. PBMC+LPS (5 ug/ml)+YY-101 100 uM • 16. PBMC+LPS (5 ug/ml)+YY-101 10 uM • 17. PBMC+LPS (5 ug/ml)+YY-101 1 uM • 18. PBMC+LPS (5 ug/ml)+YY-101 0.1 uM • 19. PBMC+LPS (5 ug/ml)+YY-101 0.01 uM • 20. PBMC+LPS (5 ug/ml)+YY-101 0.001 uM • 21. PBMC+LPS (5 ug/ml)+YDE-011 100 uM • 22. PBMC+LPS (5 ug/ml)+YDE-011 10 uM • 23. PBMC+LPS (5 ug/ml)+YDE-011 1 uM • 24. PBMC+LPS (5 ug/ml)+YDE-011 0.1 uM • 25. PBMC+LPS (5 ug/ml)+YDE-011 0.01 uM • 26. PBMC+LPS (5 ug/ml)+YDE-011 0.001 uM • 27. PBMC+LPS (5 ug/ml)+YDE-043 100 uM • 28. PBMC+LPS (5 ug/ml)+YDE-043 10 uM • 29. PBMC+LPS (5 ug/ml)+YDE-043 1 uM • 30. PBMC+LPS (5 ug/ml)+YDE-043 0.1 uM • 31. PBMC+LPS (5 ug/ml)+YDE-043 0.01 uM • 32. PBMC+LPS (5 ug/ml)+YDE-043 0.001 uM
# Multiplex assay was used to measure 30 cytokines and chemokines. The 1:2, 1:10 and 1:200 diluted cell supernatant and serial dilution of the standard were dispensed into a 96 well plate at 50 ul/well. Then, the pre-mixed cocktail of antibody-coated magnetic beads was dispensed at 50 ul/well and incubated at room temperature for 2 h in a horizontal orbital microplate shaker at 800±500 rpm. The beads were washed using a magnetic device to prevent loss. The biotin-antibody was dispensed in 50 ul of each well and incubated at room temperature for 1 h in a shaker at 800±500 rpm. After washing, streptavidin-PE was added at 50 ul/well and incubated at room temperature for 30 min in a shaker under the same conditions. Finally, after washing, wash buffer (100 ul/well) was added to the plate and incubated in a shaker for 2 min. The Luminex™ 200 setting were set according to the manufacturer's protocol. The data was calculated with a standard five-parameter logistic nonlinear regression analysis of the data (xPonent software 4.2, USA). The levels of cytokine/chemokine are normalized to the live cell counts (1×10^5 cells/mL) and presented as concentrations per mL (pg/mL or ng/mL).
# [1] = PBMC + LPS(5 ug/ml) + test article 0.1 uM, Mean
# [2] = PBMC + LPS(5 ug/ml) + test article 0.1 uM, individual replicate
# [3] = PBMC + LPS(5 ug/ml) + test article 1 uM, Mean
# [4] = PBMC + LPS(5 ug/ml) + test article 1 uM, individual replicate
# [5] = PBMC + LPS(5 ug/ml) + test article 10 uM, Mean
# [6] = PBMC + LPS(5 ug/ml) + test article 10 uM, individual replicate
# [7] = PBMC + LPS(5 ug/ml) + test article 100 uM, Mean
# [8] = PBMC + LPS(5 ug/ml) + test article 100 uM, individual replicate
# [9] = PBMC + test article 0.01 uM, no LPS, Mean
# [10] = PBMC + test article 0.01 uM, no LPS, individual replicate
# [11] = PBMC + test article 0.1 uM, no LPS, Mean
# [12] = PBMC + test article 0.1 uM, no LPS, individual replicate
# [13] = PBMC + test article 1 uM, no LPS, Mean
# [14] = PBMC + test article 1 uM, no LPS, individual replicate
# [15] = PBMC + test article 10 uM, no LPS, Mean
# [16] = PBMC + test article 10 uM, no LPS, individual replicate
# [17] = PBMC + test article 100 uM, no LPS, Mean
# [18] = PBMC + test article 100 uM, no LPS, individual replicate
smiles,measurement,setting,value
CC(C)C[C@H](NC(=O)CNC(=O)[C@H](CC(=O)O)NC(=O)[C@H](CCC(N)=O)NC(=O)CNC(=O)[C@@H]1C[C@@H](O)CN1)C(=O)N[C@@H](C)C(=O)NCC(=O)N1CCC[C@H]1C(=O)N[C@@H](CCCCN)C(=O)O [YY-101] (H-[Hyp]GQDGLAGPK-OH; N-terminus and C-terminus assumed),"conc/live cell, CCL20/MIP-3 alpha","PBMC + LPS(5 ug/ml) + test article 0.01 uM, individual replicate",60.0 pg/10^5 and 56.5 pg/10^5 and 67.3 pg/10^5
same,"Concentration, CCL20/MIP-3 alpha",[1],364.1 pg/mL
same,"MFI, CCL20/MIP-3 alpha",[1],406.7
same,"conc/live cell, CCL20/MIP-3 alpha",[1],62.5 pg/10^5
same,"Concentration, CCL20/MIP-3 alpha",[2],378.5 pg/mL and 364.4 pg/mL and 349.4 pg/mL
same,"MFI, CCL20/MIP-3 alpha",[2],424.5 and 407.0 and 388.5
same,"conc/live cell, CCL20/MIP-3 alpha",[2],61.0 pg/10^5 and 70.1 pg/10^5 and 56.4 pg/10^5
same,"Concentration, CCL20/MIP-3 alpha",[3],338.5 pg/mL
same,"MFI, CCL20/MIP-3 alpha",[3],375.0
same,"conc/live cell, CCL20/MIP-3 alpha",[3],52.1 pg/10^5
same,"Concentration, CCL20/MIP-3 alpha",[4],323.0 pg/mL and 330.0 pg/mL and 362.4 pg/mL
same,"MFI, CCL20/MIP-3 alpha",[4],356.0 and 364.5 and 404.5
same,"conc/live cell, CCL20/MIP-3 alpha",[4],51.3 pg/10^5 and 46.5 pg/10^5 and 58.4 pg/10^5
same,"Concentration, CCL20/MIP-3 alpha",[5],368.2 pg/mL
same,"MFI, CCL20/MIP-3 alpha",[5],411.8
same,"conc/live cell, CCL20/MIP-3 alpha",[5],55.3 pg/10^5
same,"Concentration, CCL20/MIP-3 alpha",[6],324.3 pg/mL and 377.7 pg/mL and 402.6 pg/mL
same,"MFI, CCL20/MIP-3 alpha",[6],357.5 and 423.5 and 454.5
same,"conc/live cell, CCL20/MIP-3 alpha",[6],54.0 pg/10^5 and 59.0 pg/10^5 and 53.0 pg/10^5
same,"Concentration, CCL20/MIP-3 alpha",[7],578.6 pg/mL
same,"MFI, CCL20/MIP-3 alpha",[7],677.7
same,"conc/live cell, CCL20/MIP-3 alpha",[7],100.0 pg/10^5
same,"Concentration, CCL20/MIP-3 alpha",[8],590.1 pg/mL and 591.7 pg/mL and 553.9 pg/mL
same,"MFI, CCL20/MIP-3 alpha",[8],692.5 and 694.5 and 646.0
same,"conc/live cell, CCL20/MIP-3 alpha",[8],93.7 pg/10^5 and 95.4 pg/10^5 and 110.8 pg/10^5
same,"Concentration, CCL20/MIP-3 alpha",[9],12.1 pg/mL
same,"MFI, CCL20/MIP-3 alpha",[9],11.0
same,"conc/live cell, CCL20/MIP-3 alpha",[9],2.5 pg/10^5
same,"Concentration, CCL20/MIP-3 alpha",[10],7.3 pg/mL and 16.8 pg/mL
same,"MFI, CCL20/MIP-3 alpha",[10],7.5 and 14.5
same,"conc/live cell, CCL20/MIP-3 alpha",[10],1.4 pg/10^5 and 3.5 pg/10^5
same,"Concentration, CCL20/MIP-3 alpha",[11],9.5 pg/mL
same,"MFI, CCL20/MIP-3 alpha",[11],9.0
same,"conc/live cell, CCL20/MIP-3 alpha",[11],1.8 pg/10^5
same,"Concentration, CCL20/MIP-3 alpha",[12],7.3 pg/mL and 11.6 pg/mL
same,"MFI, CCL20/MIP-3 alpha",[12],7.5 and 10.5
same,"conc/live cell, CCL20/MIP-3 alpha",[12],1.7 pg/10^5 and 2.0 pg/10^5
same,"Concentration, CCL20/MIP-3 alpha",[13],8.8 pg/mL
same,"MFI, CCL20/MIP-3 alpha",[13],8.5
same,"conc/live cell, CCL20/MIP-3 alpha",[13],1.6 pg/10^5
same,"Concentration, CCL20/MIP-3 alpha",[14],7.3 pg/mL and 10.2 pg/mL
same,"MFI, CCL20/MIP-3 alpha",[14],7.5 and 9.5
same,"conc/live cell, CCL20/MIP-3 alpha",[14],1.3 pg/10^5 and 1.9 pg/10^5
same,"Concentration, CCL20/MIP-3 alpha",[15],41.3 pg/mL
same,"MFI, CCL20/MIP-3 alpha",[15],36.5
same,"conc/live cell, CCL20/MIP-3 alpha",[15],6.6 pg/10^5
same,"Concentration, CCL20/MIP-3 alpha",[16],57.4 pg/mL and 25.3 pg/mL
same,"MFI, CCL20/MIP-3 alpha",[16],51.5 and 21.5
same,"conc/live cell, CCL20/MIP-3 alpha",[16],9.0 pg/10^5 and 4.1 pg/10^5
same,"Concentration, CCL20/MIP-3 alpha",[17],22.4 pg/mL
same,"MFI, CCL20/MIP-3 alpha",[17],19.3
same,"conc/live cell, CCL20/MIP-3 alpha",[17],3.4 pg/10^5
same,"Concentration, CCL20/MIP-3 alpha",[18],29.8 pg/mL and 14.9 pg/mL
same,"MFI, CCL20/MIP-3 alpha",[18],25.5 and 13.0
same,"conc/live cell, CCL20/MIP-3 alpha",[18],4.7 pg/10^5 and 2.1 pg/10^5
same,LPS-induced CCL20 levels (in words),"at 100.iM, LPS 5 ug/mL 24 hrs",further increased
